Data on three compounds can be found in patent publication US20090181935A1, “COMPOSITIONS COMPRISING AN […] AND A LONG-ACTING BETA-AGONIST” (Chiesi Farmaceutici S.p.A., priority 2008, published 2009).

Where a name gives a salt, the structure may show the parent alone. Read-outs that look alike come from different tables or passages of the source.

Data set [1] can be described thus: Bronchodilation activity: Ach-induced increase in Penh, barometric plethysmography after nebulisation. It counts as in vivo, guinea pigs. To be noted: male, guinea pig, lung, inhaled; nebulisation with submaximal bronchodilator activity, 2 hours after treatment; read-out: retained dose in the target organ (lung levels). Here is the method: (§1) Airway reactivity is measured using barometric plethysmography (Buxco, USA). Male guinea pigs (500-600 g) are individually placed in plexiglass chambers. After an acclimatisation period, animals are exposed to nebulised saline for 1 minute to obtain airway baseline reading. This is followed by a 1 minute challenge with nebulised acetylcholine (Ach)-2.5 mg/mL.
(§2) After 60 minutes, 5 minutes nebulisation of vehicle or the compound 1′ in the range 2.5-250 μM are applied and Ach challenge is then repeated after 2, 5, 24, 48, and 72 hours (h). Recording of pressure fluctuations in the chambers are taken for 5 minutes after each nebulisation and analysed to calculate Enhanced Pause (Penh). Airway reactivity is expressed as percentage increase in Penh compared with Penh values from the nebulisation of vehicle.

For data set [2], the system named is acetylcholine (Ach) challenge, airway reactivity. The data set is described as above. It counts as in vivo, guinea pigs. The conditions noted are these: for bronchoprotective effect: twenty-four hours. Here is the method: as §1, §2
Data set [3] deals with carbachol-induced contraction in guinea-pigs trachea. Description: Carbachol-induced contraction in guinea-pig trachea strips, relaxation, isobolographic analysis. It counts as cell-based. The conditions noted are these: Cavia porcellus, read-out: ED50, relaxation of carbachol-induced contraction. Here is the method: Male guinea-pigs (380-420 g) are used. The investigation conforms to the Guide for the Care and Use of Laboratory Animals published by the US National Institutes of Health (NIH Publication No. 85-23, revised 1996).
The trachea is removed, cleaned and cut into two zig-zag strips, according to Emmerson et al. (J. Pharm. Pharmacol., 1979; 31:798). A sub-maximal concentration of carbachol (3×10^−7 M) is then added to the organ bath and when stable contraction is reached, a cumulative concentration-response curve (from 1×10^−11 to 1×10^−7 M) to carmoterol or compound 1′ is generated (n=12 for each compound). Maximal relaxation is tested by adding a maximal dose of isoproterenol (3×10^−7 M) at the end of the curve. Data are expressed as percentages of the isoproterenol-induced maximal relaxation. Isobolographic analysis is used to characterize the pharmacological interaction between carmoterol and compound 1′.
To estimate the experimental ED50MIX, the dose-effect curve resulting from this second set of experiments (Table 1) is fitted with a mixed logistic model. All computations are carried out resorting to NLMIXED procedure (SAS/STAT® User's Guide, version 9, 2004. SAS Institute Inc., Cary, N.C.).

The target in the next data set is T1, M2 muscarinic receptors (Homo sapiens, UniProt P08172).
T1 sequence (P08172 1-466): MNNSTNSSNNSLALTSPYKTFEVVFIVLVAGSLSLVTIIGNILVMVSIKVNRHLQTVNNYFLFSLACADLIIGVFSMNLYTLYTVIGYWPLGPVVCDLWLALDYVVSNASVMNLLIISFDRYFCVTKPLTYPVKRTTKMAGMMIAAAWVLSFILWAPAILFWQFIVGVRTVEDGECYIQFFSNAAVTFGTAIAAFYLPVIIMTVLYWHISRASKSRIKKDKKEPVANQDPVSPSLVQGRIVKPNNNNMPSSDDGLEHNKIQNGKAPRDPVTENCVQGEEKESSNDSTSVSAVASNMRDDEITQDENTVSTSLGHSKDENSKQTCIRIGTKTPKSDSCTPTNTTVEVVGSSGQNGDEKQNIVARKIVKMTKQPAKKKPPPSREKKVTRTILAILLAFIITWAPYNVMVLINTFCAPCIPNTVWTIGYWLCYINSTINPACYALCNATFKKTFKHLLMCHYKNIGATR
Briefly: Dissociation / duration of action on M2 receptors. It counts as binding. The conditions noted are these: compared with tiotropium bromide.

The next data set has as its system muscarinic receptors. Briefly: Receptor potency and duration of action compared with tiotropium bromide.

`O=C(C[N+]12CCC(CC1)C(OC(=O)N(Cc1cc(F)c(F)c(F)c1)c1cccc(F)c1)C2)c1cccs1` (stereo not shown) [compound 1′, 3-[[[(3-fluorophenyl)[(3,4,5-trifluorophenyl)methyl]amino]carbonyl]oxy]-1-[2-oxo-2-(2-thienyl)ethyl]-1-azoniabicyclo [2.2.2]octane]: in data set [1], the concentration at 2 h was around 50 ng/g. Besides, the bronchoprotective effect came to 63.7±15.1% in data set [2] (25 μM inhalation) and 87.1±8.7% in data set [2] (50 μM inhalation). Further, the “inhibition of Ach-induced increase in Penh” value in data set [2] (50 μM inhalation, 48 hours) was 49.2±23.2%. For the same compound, the “maximal effect, inhibition of Ach-induced increase in Penh” value in data set [2] (50 μM nebulised, two hours after end of nebulisation) worked out at 99.6±0.4. In addition, the “inhibition of Ach-induced increase in Penh (effect)” value in data set [2] (250 μM inhalation, 48 hours) stood at 83.0±16.1%. Also, the “residual activity, inhibition of Ach-induced increase in Penh” value in data set [2] (250 μM inhalation, 72 hours) came to 34.8±20.9%. Also, the duration of effect in data set [2] (inhalation of lower concentrations (below 25 μM)) is at most 5 h. Besides, in data set [3], the EC50 is 0.93 nM.

For `O=C(C[N+]12CCC(CC1)C(OC(=O)N(Cc1cc(F)c(F)c(F)c1)c1cccc(F)c1)C2)c1cccs1` (stereo not shown) [chloride salt of active compound 1, 3-[[[(3-fluorophenyl)[(3,4,5-trifluorophenyl)methyl]amino]carbonyl]oxy]-1-[2-oxo-2-(2-thienyl)ethyl]-1-azoniabicyclo[2.2.2]octane], the “duration of action on the M2 receptors” value at M2 muscarinic receptors is reported as “significantly short-acting”. In addition, in the data set with muscarinic receptors, the duration of action entry was “equieffective to tiotropium bromide” and the receptor potency entry is “equieffective to tiotropium bromide”.

As to `COc1ccc(C[C@@H](C)NC[C@H](O)c2ccc(O)c3[nH]c(=O)ccc23)cc1` [carmoterol, reference compound], the EC50 in data set [3] (carbachol 3×10^−7 M, % of isoproterenol-induced maximal relaxation, n=12) came to 0.54 nM.
